The source of these data is patent US20200030355A1, “COMBINATION THERAPY FOR TREATING CANCER” (Epizyme, Inc., priority 2014, published 2020).

Where a name gives a salt, the structure may show the parent alone. Read-outs that look alike come from different tables or passages of the source.

One assay deals with MOLM-13 cells. In words: EPZ-5676 300 nM 7-day pre-treatment, then second compound 72 hours, ATPLite, IC50 shift (Example 6). The format is cell-based, human. The conditions noted are these: 300 nM EPZ-5676 or DMSO 7-day pre-treatment, then 2nd compound 72 hours, Synergy = IC50 of 2nd compound decreased by 2-fold or more vs DMSO control. The protocol: (§1) Cells were then equilibrated in incubators for 24 hours before treatment with a second compound. Treated assay plates were incubated with a second compound for 72 hours. After this time, plates were developed for endpoint analysis using ATPLite to measure ATP content, which is used as an indicator of cell viability.
(§2) “N/D” means that IC50 of the second compound could not be determined for both conditions.
For orientation: Cellular ATP, detected with luciferase, serves as a proxy for viable cell number.

The next assay deals with SKM-1 cells. The description is as above. It counts as cell-based, human. The protocol:
as §1, §2

The mark [1] stands for this setting: SKM-1 cells, 300 nM EPZ-5676 or DMSO 7-day pre-treatment, then 2nd compound 72 hours, ATPLite, Synergy = IC50 of 2nd compound decreased by 2-fold or more vs DMSO control.

Take `C=C(c1ccc(C(=O)O)cc1)c1cc2c(cc1C)C(C)(C)CCC2(C)C` [Bexarotene]: in the assay with MOLM-13 cells, the “MOLM-13 (summary of combination study: EPZ-5676 + 2nd compound)” value was “Synergy (considered synergistic if the IC50 value of the second compound decreased by 2-fold or more when EPZ-5676 was added as compared to the DMSO control)”. The “SKM-1 (summary of combination study: EPZ-5676 + 2nd compound)” value in the assay with SKM-1 cells (setting [1]) is listed as “Synergy (considered synergistic if the IC50 value of the second compound decreased by 2-fold or more when EPZ-5676 was added as compared to the DMSO control)”.
Take `O=C(/C=C/c1ccc(O)c(O)c1)OCCc1ccccc1` [CAPE]: the “MOLM-13 (summary of combination study: EPZ-5676 + 2nd compound)” value in the assay with MOLM-13 cells was “Synergy (considered synergistic if the IC50 value of the second compound decreased by 2-fold or more when EPZ-5676 was added as compared to the DMSO control)”. Also, in the assay with SKM-1 cells (setting [1]), the “SKM-1 (summary of combination study: EPZ-5676 + 2nd compound)” value is “Synergy (considered synergistic if the IC50 value of the second compound decreased by 2-fold or more when EPZ-5676 was added as compared to the DMSO control)”.
For `Cc1sc2c(c1C)C(c1ccc(Cl)cc1)=N[C@@H](CC(N)=O)c1nnc(C)n1-2` [CPI-203], the “MOLM-13 (summary of combination study: EPZ-5676 + 2nd compound)” value in the assay with MOLM-13 cells is “Synergy (considered synergistic if the IC50 value of the second compound decreased by 2-fold or more when EPZ-5676 was added as compared to the DMSO control)”. Moreover, the “SKM-1 (summary of combination study: EPZ-5676 + 2nd compound)” value with SKM-1 cells (setting [1]) is listed as “Synergy (considered synergistic if the IC50 value of the second compound decreased by 2-fold or more when EPZ-5676 was added as compared to the DMSO control)”.
Turning to `COCc1c(C(C)C)nc(C(C)C)c(/C=C/[C@@H](O)C[C@@H](O)CC(=O)O)c1-c1ccc(F)cc1` [Cerivastatin Sodium], in the assay on MOLM-13 cells, the “MOLM-13 (summary of combination study: EPZ-5676 + 2nd compound)” value is listed as “Synergy (considered synergistic if the IC50 value of the second compound decreased by 2-fold or more when EPZ-5676 was added as compared to the DMSO control)”. Besides, in the assay with SKM-1 cells (setting [1]), the “SKM-1 (summary of combination study: EPZ-5676 + 2nd compound)” value is given as “Synergy (considered synergistic if the IC50 value of the second compound decreased by 2-fold or more when EPZ-5676 was added as compared to the DMSO control)”.
As for `CS(=O)(=O)N1CCN(Cc2cc3nc(-c4cccc5[nH]ncc45)nc(N4CCOCC4)c3s2)CC1` [GDC-0941], the “MOLM-13 (summary of combination study: EPZ-5676 + 2nd compound)” value with MOLM-13 cells is reported as “Synergy (considered synergistic if the IC50 value of the second compound decreased by 2-fold or more when EPZ-5676 was added as compared to the DMSO control)”. The “SKM-1 (summary of combination study: EPZ-5676 + 2nd compound)” value in the assay with SKM-1 cells (setting [1]) is listed as “Synergy (considered synergistic if the IC50 value of the second compound decreased by 2-fold or more when EPZ-5676 was added as compared to the DMSO control)”.
As for `N#Cc1c(C2CCNCC2)cc(-c2c(O)cccc2OCC2CC2)nc1N` [IKK-2 Inhibitor VIII], the “SKM-1 (summary of combination study: EPZ-5676 + 2nd compound)” value in the assay on SKM-1 cells (setting [1]) is given as “Synergy (considered synergistic if the IC50 value of the second compound decreased by 2-fold or more when EPZ-5676 was added as compared to the DMSO control)”.
Consider `COc1ccc(-c2ccc3c(N4CCOCC4)nc(N4C[C@@H](C)O[C@@H](C)C4)nc3n2)cc1CO` [KU 0063794], for which the “MOLM-13 (summary of combination study: EPZ-5676 + 2nd compound)” value in the assay with MOLM-13 cells is on record as “Synergy (considered synergistic if the IC50 value of the second compound decreased by 2-fold or more when EPZ-5676 was added as compared to the DMSO control)”. Also, the “SKM-1 (summary of combination study: EPZ-5676 + 2nd compound)” value with SKM-1 cells (setting [1]) is “Synergy (considered synergistic if the IC50 value of the second compound decreased by 2-fold or more when EPZ-5676 was added as compared to the DMSO control)”.
For the compound `O=C(c1cn(Cc2cncn2Cc2ccc(Br)cc2)cc1-c1cccc2ccccc12)N1CCOCC1` [LB42708], the “MOLM-13 (summary of combination study: EPZ-5676 + 2nd compound)” value with MOLM-13 cells is “Synergy (considered synergistic if the IC50 value of the second compound decreased by 2-fold or more when EPZ-5676 was added as compared to the DMSO control)”. For the same compound, the “SKM-1 (summary of combination study: EPZ-5676 + 2nd compound)” value in the assay with SKM-1 cells (setting [1]) is recorded as “Synergy (considered synergistic if the IC50 value of the second compound decreased by 2-fold or more when EPZ-5676 was added as compared to the DMSO control)”.
In the case of `CN(C)C(=O)c1cc2cnc(Nc3ccc(N4CCNCC4)cn3)nc2n1C1CCCC1` [LEE011], the “MOLM-13 (summary of combination study: EPZ-5676 + 2nd compound)” value with MOLM-13 cells is “Synergy (considered synergistic if the IC50 value of the second compound decreased by 2-fold or more when EPZ-5676 was added as compared to the DMSO control)”. Also, the “SKM-1 (summary of combination study: EPZ-5676 + 2nd compound)” value in the assay on SKM-1 cells (setting [1]) is reported as “Synergy (considered synergistic if the IC50 value of the second compound decreased by 2-fold or more when EPZ-5676 was added as compared to the DMSO control)”.
As to `CC(C)C[C@H](NC(=O)CNC(=O)c1cc(Cl)ccc1Cl)B(O)O` [MLN2238], in the assay on SKM-1 cells (setting [1]), the “SKM-1 (summary of combination study: EPZ-5676 + 2nd compound)” value is on record as “Synergy (considered synergistic if the IC50 value of the second compound decreased by 2-fold or more when EPZ-5676 was added as compared to the DMSO control)”.
On the same count and under the same terms, with `C[C@H]1C[C@@H]2[C@H]([C@@H](O)C[C@@]3(C)[C@H]2CC[C@]3(O)C(=O)CO)[C@@]2(C)C=CC(=O)C=C12` [Methylprednisolone] the entry was “Synergy (considered synergistic if the IC50 value of the second compound decreased by 2-fold or more when EPZ-5676 was added as compared to the DMSO control)”; with `C=C[C@@]1(C)CC(=O)[C@]2(O)[C@@]3(C)[C@@H](O)CCC(C)(C)[C@@H]3[C@H](OC(=O)CCN(C)C)[C@H](OC(C)=O)[C@@]2(C)O1.Cl` [NKH 477], “Synergy (considered synergistic if the IC50 value of the second compound decreased by 2-fold or more when EPZ-5676 was added as compared to the DMSO control)”.
Take `Cc1sc2c(c1C)C(c1ccc(Cl)cc1)=N[C@@H](CC(=O)Nc1ccc(O)cc1)c1nnc(C)n1-2` [OTX015]: the “MOLM-13 (summary of combination study: EPZ-5676 + 2nd compound)” value in the assay with MOLM-13 cells is “Synergy (considered synergistic if the IC50 value of the second compound decreased by 2-fold or more when EPZ-5676 was added as compared to the DMSO control)”. For the same compound, the “SKM-1 (summary of combination study: EPZ-5676 + 2nd compound)” value in the assay on SKM-1 cells (setting [1]) was “Synergy (considered synergistic if the IC50 value of the second compound decreased by 2-fold or more when EPZ-5676 was added as compared to the DMSO control)”.
For `CC(C)CC(=O)Nc1[nH]nc2c1CN(C(=O)C1CCN(C)CC1)C2(C)C` [PHA-793887], the “SKM-1 (summary of combination study: EPZ-5676 + 2nd compound)” value in the assay on SKM-1 cells (setting [1]) is given as “Synergy (considered synergistic if the IC50 value of the second compound decreased by 2-fold or more when EPZ-5676 was added as compared to the DMSO control)”.
Still for that read-out and setting: with `COc1ccc(Cc2nccc3cc(OC)c(OC)cc23)cc1OC` [Papaverine Hydrochloride] the entry was “Synergy (considered synergistic if the IC50 value of the second compound decreased by 2-fold or more when EPZ-5676 was added as compared to the DMSO control)”; with `COc1ccc(CCc2nc3cc(-c4c(C)noc4C)ccc3n2C[C@H](C)N2CCOCC2)cc1Cl` [SGC-CBP30], “Synergy (considered synergistic if the IC50 value of the second compound decreased by 2-fold or more when EPZ-5676 was added as compared to the DMSO control)”; with `CCN(CC)CCNC(=O)c1c(C)[nH]c(/C=C2\C(=O)Nc3ccc(F)cc32)c1C` [Sunitinib Malate], 2.0.
Consider `CC1=C(/C=C/C(C)=C/C=C/C(C)=C/C(=O)O)C(C)(C)CCC1` [Tretinoin], for which the “MOLM-13 (summary of combination study: EPZ-5676 + 2nd compound)” value with MOLM-13 cells is “Synergy (considered synergistic if the IC50 value of the second compound decreased by 2-fold or more when EPZ-5676 was added as compared to the DMSO control)”. The “SKM-1 (summary of combination study: EPZ-5676 + 2nd compound)” value with SKM-1 cells (setting [1]) is “Synergy (considered synergistic if the IC50 value of the second compound decreased by 2-fold or more when EPZ-5676 was added as compared to the DMSO control)”.
For `COc1cc2c(NC3CCN(C4CCCCC4)CC3)nc(N3CCCN(C(C)C)CC3)nc2cc1OCCCN1CCCCC1` [UNC 0646], in the assay on MOLM-13 cells, the “MOLM-13 (summary of combination study: EPZ-5676 + 2nd compound)” value is listed as “Synergy (considered synergistic if the IC50 value of the second compound decreased by 2-fold or more when EPZ-5676 was added as compared to the DMSO control)”. Also, the “SKM-1 (summary of combination study: EPZ-5676 + 2nd compound)” value in the assay on SKM-1 cells (setting [1]) is given as “Synergy (considered synergistic if the IC50 value of the second compound decreased by 2-fold or more when EPZ-5676 was added as compared to the DMSO control)”.
On to Arsenic Trioxide, for which the “SKM-1 (summary of combination study: EPZ-5676 + 2nd compound)” value in the assay on SKM-1 cells came out at 2.0.
